Reference: PubChem BioAssay AID1259407 (Chemical Carcinogenesis Research Information System (CCRIS), 2018)
Calls of active or inactive are those of the source. How the calls were made is not given here.

System: CCRIS mutagenicity, Ames/micronucleus/aberration tests
Test: CCRIS mutagenicity studies

Measured: mutagenic call

CC[n+]1c(-c2ccccc2)c2cc(N)ccc2c2ccc(N)cc21
active: Test System: AMES SALMONELLA TYPHIMURIUM, Strain/Indicator: TA97A, Metabolic Activation: RAT LIVER S-9, AROCLOR 1254, Method: STANDARD PLATE active; positive | Test System: AMES SALMONELLA TYPHIMURIUM, Strain/Indicator: TA98, Metabolic Activation: RAT LIVER S-9, AROCLOR 1254, Method: STANDARD PLATE active; positive | Test System: AMES SALMONELLA TYPHIMURIUM, Strain/Indicator: TA98, Metabolic Activation: RAT, LIVER, S-9, AROCLOR 1254, HAMSTER, LIVER, S-9, AROCLOR 1254, Method: STANDARD PLATE active; positive | Test System: AMES SALMONELLA TYPHIMURIUM, Strain/Indicator: TA98, Metabolic Activation: RAT, LIVER, S-9, AROCLOR 1254, Method: STANDARD PLATE active; positive | Test System: AMES SALMONELLA TYPHIMURIUM, Strain/Indicator: TA98, Metabolic Activation: RAT, LIVER, S-9, AROCLOR 1254 OR PHENOBARBITOL, Method: STANDARD PLATE active; positive | Test System: AMES SALMONELLA TYPHIMURIUM, Strain/Indicator: TA102, Metabolic Activation: RAT LIVER S-9, AROCLOR 1254, Method: STANDARD PLATE active; positive | Test System: AMES SALMONELLA TYPHIMURIUM, Strain/Indicator: TA1537, Metabolic Activation: RAT LIVER S-9, AROCLOR 1254, Method: STANDARD PLATE active; positive | Test System: AMES SALMONELLA TYPHIMURIUM, Strain/Indicator: TA1537, Metabolic Activation: RAT, LIVER, S-9, AROCLOR 1254, HAMSTER, LIVER, S-9, AROCLOR 1254 (2.5-20%), Method: STANDARD PLATE active; positive | Test System: AMES SALMONELLA TYPHIMURIUM, Strain/Indicator: TA1537, Metabolic Activation: RAT, LIVER, S-9, AROCLOR 1254, HAMSTER, LIVER, S-9, AROCLOR 1254, Method: STANDARD PLATE active; positive | Test System: AMES SALMONELLA TYPHIMURIUM, Strain/Indicator: TA1537, Metabolic Activation: RAT, LIVER, S-9, AROCLOR 1254 OR PHENOBARBITOL, Method: STANDARD PLATE active; positive | Test System: AMES SALMONELLA TYPHIMURIUM, Strain/Indicator: TA1538, Metabolic Activation: RAT LIVER S-9, AROCLOR 1254, Method: STANDARD PLATE active; positive | Test System: AMES SALMONELLA TYPHIMURIUM, Strain/Indicator: TA1538, Metabolic Activation: RAT, LIVER, S-9, AROCLOR 1254, HAMSTER, LIVER, S-9, AROCLOR 1254, Method: STANDARD PLATE active; positive | Test System: AMES SALMONELLA TYPHIMURIUM, Strain/Indicator: TA1538, Metabolic Activation: RAT, LIVER, S-9, AROCLOR 1254, Method: STANDARD PLATE active; positive | Test System: AMES SALMONELLA TYPHIMURIUM, Strain/Indicator: TA1538, Metabolic Activation: RAT, LIVER, S-9, AROCLOR 1254 OR PHENOBARBITOL, Method: STANDARD PLATE active; positive | Test System: MOUSE LYMPHOMA, Strain/Indicator: L5178Y (TK+/TK-), Metabolic Activation: RAT, LIVER, S-9, AROCLOR 1254, Method: SUSPENSION/PLATE active; positive. reevaluation of results: positive
inactive: End Point: IN VITRO MICRONUCLEUS, Test System: CHO CELLS, Metabolic Activation: RAT, LIVER, S-9, AROCLOR 1254 inactive; negative | Test System: AMES SALMONELLA TYPHIMURIUM, Strain/Indicator: TA97A, Metabolic Activation: NONE, Method: STANDARD PLATE inactive; negative | Test System: AMES SALMONELLA TYPHIMURIUM, Strain/Indicator: TA98, Metabolic Activation: NONE, Method: STANDARD PLATE inactive; negative | Test System: AMES SALMONELLA TYPHIMURIUM, Strain/Indicator: TA100, Metabolic Activation: NONE, Method: STANDARD PLATE inactive; negative | Test System: AMES SALMONELLA TYPHIMURIUM, Strain/Indicator: TA100, Metabolic Activation: RAT LIVER S-9, AROCLOR 1254, Method: STANDARD PLATE inactive; negative | Test System: AMES SALMONELLA TYPHIMURIUM, Strain/Indicator: TA100, Metabolic Activation: RAT, LIVER, S-9, AROCLOR 1254 OR PHENOBARBITOL, Method: STANDARD PLATE inactive; negative | Test System: AMES SALMONELLA TYPHIMURIUM, Strain/Indicator: TA102, Metabolic Activation: NONE, Method: STANDARD PLATE inactive; negative | Test System: AMES SALMONELLA TYPHIMURIUM, Strain/Indicator: TA1535, Metabolic Activation: NONE, Method: STANDARD PLATE inactive; negative | Test System: AMES SALMONELLA TYPHIMURIUM, Strain/Indicator: TA1535, Metabolic Activation: RAT LIVER S-9, AROCLOR 1254, Method: STANDARD PLATE inactive; negative | Test System: AMES SALMONELLA TYPHIMURIUM, Strain/Indicator: TA1535, Metabolic Activation: RAT, LIVER, S-9, AROCLOR 1254 OR PHENOBARBITOL, Method: STANDARD PLATE inactive; negative | Test System: AMES SALMONELLA TYPHIMURIUM, Strain/Indicator: TA1537, Metabolic Activation: NONE, Method: STANDARD PLATE inactive; negative | Test System: AMES SALMONELLA TYPHIMURIUM, Strain/Indicator: TA1538, Metabolic Activation: NONE, Method: STANDARD PLATE inactive; negative | Test System: CHINESE HAMSTER OVARY, Strain/Indicator: CHO-K1-BH4 (HGPRT)/6-THIOGUANINE, Metabolic Activation: NONE, Method: SUSPENSION/PLATE inactive; negative | Test System: CHINESE HAMSTER OVARY, Strain/Indicator: CHO-K1-BH4 (HGPRT)/6-THIOGUANINE, Metabolic Activation: S-9, Method: SUSPENSION/PLATE inactive; negative | Test System: CHINESE HAMSTER OVARY, Strain/Indicator: CHO-K1-BH4 (HGPRT), Metabolic Activation: NONE, Method: SUSPENSION/PLATE inactive; negative | Test System: CHINESE HAMSTER OVARY, Strain/Indicator: CHO-K1-BH4 (HGPRT), Metabolic Activation: RAT, LIVER, S-9, AROCLOR, Method: SUSPENSION/PLATE inactive; negative | Test System: CHINESE HAMSTER V-79, Strain/Indicator: V-79/6-THIOGUANINE, Metabolic Activation: NONE, Method: FLASK ASSAY inactive; negative | Test System: E. COLI, Strain/Indicator: WP2, Metabolic Activation: NONE, Method: PREINCUBATION inactive; negative | Test System: E. COLI, Strain/Indicator: WP2 UVRA, Metabolic Activation: NONE, Method: PREINCUBATION inactive; negative | Test System: MOUSE LYMPHOMA, Strain/Indicator: L5178Y (TK+/TK-), Metabolic Activation: S-9, Method: SUSPENSION/PLATE inactive; negative
